From BigSolDB 2.1

SMILES: CC(CCc1ccccc1)NCC(O)c1ccc(O)c(C(N)=O)c1.Cl (stereo unspecified)
- solubility (mole fraction) (in ethanol, 288.15 K): 0.00124
- solubility (mole fraction) (in ethanol, 293.15 K): 0.00145
- solubility (mole fraction) (in ethanol, 298.15 K): 0.0017
- solubility (mole fraction) (in ethanol, 303.15 K): 0.00198
- solubility (mole fraction) (in ethanol, 308.15 K): 0.00222
- solubility (mole fraction) (in ethanol, 313.15 K): 0.00253
- solubility (mole fraction) (in ethanol, 318.15 K): 0.00288
- solubility (mole fraction) (in ethanol, 323.15 K): 0.0035
- solubility (mole fraction) (in ethanol, 328.15 K): 0.00395
- solubility (mole fraction) (in ethyl acetate, 288.15 K): 0.000116
- solubility (mole fraction) (in ethyl acetate, 293.15 K): 0.000163
- solubility (mole fraction) (in ethyl acetate, 298.15 K): 0.000237
- solubility (mole fraction) (in ethyl acetate, 303.15 K): 0.000302
- solubility (mole fraction) (in ethyl acetate, 308.15 K): 0.000406
- solubility (mole fraction) (in ethyl acetate, 313.15 K): 0.000531
- solubility (mole fraction) (in ethyl acetate, 318.15 K): 0.000689
- solubility (mole fraction) (in ethyl acetate, 323.15 K): 0.000823
- solubility (mole fraction) (in ethyl acetate, 328.15 K): 0.00109
- solubility (mole fraction) (in isobutanol, 288.15 K): 0.000136
- solubility (mole fraction) (in isobutanol, 293.15 K): 0.000184
- solubility (mole fraction) (in isobutanol, 298.15 K): 0.000257
- solubility (mole fraction) (in isobutanol, 303.15 K): 0.000326
- solubility (mole fraction) (in isobutanol, 308.15 K): 0.000429
- solubility (mole fraction) (in isobutanol, 313.15 K): 0.00056
- solubility (mole fraction) (in isobutanol, 318.15 K): 0.000729
- solubility (mole fraction) (in isobutanol, 323.15 K): 0.000981
- solubility (mole fraction) (in isobutanol, 328.15 K): 0.00126
- solubility (mole fraction) (in isopropanol, 288.15 K): 0.00011
- solubility (mole fraction) (in isopropanol, 293.15 K): 0.000164
- solubility (mole fraction) (in isopropanol, 298.15 K): 0.000253
- solubility (mole fraction) (in isopropanol, 303.15 K): 0.000355
- solubility (mole fraction) (in isopropanol, 308.15 K): 0.000492
- solubility (mole fraction) (in isopropanol, 313.15 K): 0.000675
- solubility (mole fraction) (in isopropanol, 318.15 K): 0.000985
- solubility (mole fraction) (in isopropanol, 323.15 K): 0.0014
- solubility (mole fraction) (in isopropanol, 328.15 K): 0.00194
- solubility (mole fraction) (in methanol, 288.15 K): 0.00883
- solubility (mole fraction) (in methanol, 293.15 K): 0.0101
- solubility (mole fraction) (in methanol, 298.15 K): 0.0114
- solubility (mole fraction) (in methanol, 303.15 K): 0.013
- solubility (mole fraction) (in methanol, 308.15 K): 0.0144
- solubility (mole fraction) (in methanol, 313.15 K): 0.0162
- solubility (mole fraction) (in methanol, 318.15 K): 0.0182
- solubility (mole fraction) (in methanol, 323.15 K): 0.0204
- solubility (mole fraction) (in methanol, 328.15 K): 0.0228
- solubility (mole fraction) (in n-butanol, 288.15 K): 0.000385
- solubility (mole fraction) (in n-butanol, 293.15 K): 0.000467
- solubility (mole fraction) (in n-butanol, 298.15 K): 0.000565
- solubility (mole fraction) (in n-butanol, 303.15 K): 0.000675
- solubility (mole fraction) (in n-butanol, 308.15 K): 0.000808
- solubility (mole fraction) (in n-butanol, 313.15 K): 0.000967
- solubility (mole fraction) (in n-butanol, 318.15 K): 0.00116
- solubility (mole fraction) (in n-butanol, 323.15 K): 0.00136
- solubility (mole fraction) (in n-butanol, 328.15 K): 0.00163
- solubility (mole fraction) (in n-propanol, 288.15 K): 0.000478
- solubility (mole fraction) (in n-propanol, 293.15 K): 0.00058
- solubility (mole fraction) (in n-propanol, 298.15 K): 0.00071
- solubility (mole fraction) (in n-propanol, 303.15 K): 0.000841
- solubility (mole fraction) (in n-propanol, 308.15 K): 0.001
- solubility (mole fraction) (in n-propanol, 313.15 K): 0.00121
- solubility (mole fraction) (in n-propanol, 318.15 K): 0.00144
- solubility (mole fraction) (in n-propanol, 323.15 K): 0.00173
- solubility (mole fraction) (in n-propanol, 328.15 K): 0.00194
- solubility (mole fraction) (in sec-butanol, 288.15 K): 0.000167
- solubility (mole fraction) (in sec-butanol, 293.15 K): 0.000211
- solubility (mole fraction) (in sec-butanol, 298.15 K): 0.000278
- solubility (mole fraction) (in sec-butanol, 303.15 K): 0.000336
- solubility (mole fraction) (in sec-butanol, 308.15 K): 0.000411
- solubility (mole fraction) (in sec-butanol, 313.15 K): 0.000515
- solubility (mole fraction) (in sec-butanol, 318.15 K): 0.000643
- solubility (mole fraction) (in sec-butanol, 323.15 K): 0.000804
- solubility (mole fraction) (in sec-butanol, 328.15 K): 0.000983
- solubility (mole fraction) (in water, 288.15 K): 0.000711
- solubility (mole fraction) (in water, 293.15 K): 0.000898
- solubility (mole fraction) (in water, 298.15 K): 0.00118
- solubility (mole fraction) (in water, 303.15 K): 0.00145
- solubility (mole fraction) (in water, 308.15 K): 0.00172
- solubility (mole fraction) (in water, 313.15 K): 0.00212
- solubility (mole fraction) (in water, 318.15 K): 0.00266
- solubility (mole fraction) (in water, 323.15 K): 0.00337
- solubility (mole fraction) (in water, 328.15 K): 0.00409
